# Key:
# [1] = target: T1, reuptake of tritiated serotonin ([3H]5HT), rat whole brain minus cerebellum synaptosomes (Rattus norvegicus, UniProt P31652); assay type: biochemical
# T1 construct: homogenization of rat caudate (DA) or whole brain minus cerebellum (5HT); from tissue; host or cells: rat whole brain minus cerebellum, synaptosomes
# [2] = tested on: food-maintained and cocaine-maintained responding in rhesus monkeys; conditions: rhesus monkey, in vivo
# [3] = tested on: dopamine (DA) and serotonin (5-HT) in nucleus accumbens dialysate; assay: In vivo microdialysis with methamphetamine challenge; design: species or system male Sprague-Dawley rats; conditions: 0.7 ml/kg im
# [4] = tested on: food-maintained and cocaine-maintained responding in rhesus monkeys; conditions: comparison value for the shorter-acting drug; cited from earlier work
# [5] = tested on: dopamine transporter versus serotonin and norepinephrine transporters; conditions: Rothman et al. (1993); cited from earlier work
# [6] = methamphetamine 1 mg/kg iv four days later, FIG. 4 (percent of baseline)
# T1 sequence (P31652 whole entry): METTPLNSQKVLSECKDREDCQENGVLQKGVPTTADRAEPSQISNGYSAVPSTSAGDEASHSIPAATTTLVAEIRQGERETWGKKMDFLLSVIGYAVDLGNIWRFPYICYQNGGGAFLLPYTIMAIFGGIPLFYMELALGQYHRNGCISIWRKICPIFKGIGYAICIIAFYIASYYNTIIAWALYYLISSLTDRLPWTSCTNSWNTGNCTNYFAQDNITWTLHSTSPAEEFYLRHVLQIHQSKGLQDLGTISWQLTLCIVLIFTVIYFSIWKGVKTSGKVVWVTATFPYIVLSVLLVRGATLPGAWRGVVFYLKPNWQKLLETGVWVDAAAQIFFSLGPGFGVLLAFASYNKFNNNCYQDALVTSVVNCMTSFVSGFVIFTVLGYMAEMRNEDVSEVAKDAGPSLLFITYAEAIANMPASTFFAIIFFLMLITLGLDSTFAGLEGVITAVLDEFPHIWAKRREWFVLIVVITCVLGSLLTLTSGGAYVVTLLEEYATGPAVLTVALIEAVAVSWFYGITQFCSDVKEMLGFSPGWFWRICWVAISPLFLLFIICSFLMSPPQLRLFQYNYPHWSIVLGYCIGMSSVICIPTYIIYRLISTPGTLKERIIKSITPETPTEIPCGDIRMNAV
smiles,measurement,setting,value
NCCc1c[nH]c2ccc(O)cc12 [[^3H]5HT],Km,[1],0.0174 ± 0.0008 µM
"CCCCCCCCCC(=O)OC(CCN1CCN(CCOC(c2ccc(F)cc2)c2ccc(F)cc2)CC1)c1ccccc1 (racemic) [compound 5*, (±)1-[2-Bis-(p-fluorophenyl)methoxy]ethyl]-4-(3-hyroxy-3-phenylpropyl)piperazine decanoate ester]",duration of sustained and selective effect on cocaine-maintained responding,[2],almost thirty days
same,increase of basal levels of dopamine (DA),"[3]; four days after injection, FIG. 3",two-fold
same,ability of methamphetamine to increase dopamine levels,"[3]; methamphetamine 1 mg/kg iv four days later, FIG. 3 (picogram/fraction)",essentially eliminated
same,ability of methamphetamine to increase dopamine,[3]; [6],blunted
same,ability of methamphetamine to increase serotonin (5-HT),[3]; [6],blunted
"Fc1ccc(C(OCCN2CCN(CCCc3ccccc3)CC2)c2ccc(F)cc2)cc1 [GBR 12909, 1-[2-[bis(4-fluorophenyl)methoxy]ethyl]-4-[3-phenylpropyl]piperazine]",duration of effect on cocaine-maintained responding,[4],4 to 6 h
"c1ccc(CCCN2CCCN(CCOC(c3ccccc3)c3ccccc3)CC2)cc1 [LR1111, 1-[2-(diphenyl-methoxy)-ethyl]-4-(3-phenylpropyl)homopiperazine]",selectivity for the dopamine transporter over the serotonin and norepinephrine transporters,[5],"over 4,000 fold"

# Reference: patent US6387389B1 (priority 1996, dated 2002)
